Results from patent US9974931B2, “Pharmaceutical-coated medical products, the production thereof and the use thereof” (Invatec Technology Center Gmbh, priority 2007, dated 2018).

How the values were obtained:
[1] = test system: overstretched coronary arteries in pigs; assay: Efficacy and tolerance of coated balloon catheters with stent implantation, quantitative angiography after 4 weeks; assay type: in vivo; conditions: pig coronary artery, n = 8; for Late lumen loss: within 4 weeks
Text: The efficacy and tolerance of coated balloon catheters according to example 5 in overstretched coronary arteries in pigs
Method: Scheller B, Speck U, Abramjuk C, Bernhardt U, Böhm M, Nickenig G: Paclitaxel balloon coating—a novel method for prevention and therapy of restenosis. Circulation 2004; 110: 810-4
Stents were implanted into pigs with the help of methotrexate coated or uncoated (control) balloon catheters. After 4 weeks the extent of the constriction of the lumen in the area of the stent was measured using quantitative angiography.
The late lumen loss means the amount by which the original coronary artery lumen diameter decreases due to excessive cell growth within 4 weeks. With blood flowing through them the original coronary artery lumen diameters were 2.64 mm and 2.41 mm respectively. In the control group (no methotrexate) the late lumen loss was 1.1 mm and in the group treated with methotrexate the late lumen loss was 0.67 mm.

[2] = Coating of balloon catheters with methotrexate: content of active substance; assay type: physicochemical; conditions: balloons 3.5 to 19 mm; 2×16 μl coating plus additional coat with Ultravist-370 + HES + methotrexate
Description: 30 mg methotrexic acid+100 μl sodium bicarbonate (7.5%)+900 μl methanol (coating with 2×16 μl, corresponding to ˜4 μg/mm^2 balloon surface)
Additional coat: Ultravist®-370+hydroxyethyl starch (HES) 10% (1:1 by volume)+30 mg methotrexate/ml applied by immersing for a short time
Stents: stainless steel, balloon-expandable 3.5 to 18 mm
Content of active substance: 5.3 μg/mm^2 balloon surface

[3] = Loss of the active substance during expansion in the dry state (adhesion test); assay type: physicochemical
Text: The active substance can, for example, be released in the form of particles and can then become effective by dissolution in the course of a longer period of time; • Low molecular weight: Substances with a molecular weight less than 5000 Da, and preferably <2000 Da, and particularly preferred <1000 Da; • Hydrophilic/hydrophilised balloon membrane: hydrophilic membranes consisting of materials which can be wetted with water or with hydrophilic solvents; hydrophilised membranes are membranes made out nylon, for example, whose surfaces were changed by subsequent treatment into a state that can be wetted with water or other hydrophilic solvents. • Hydrophilic or hydrophilised membranes are not to be confused with membranes which are provided with an additional hydrophilic layer; • Hydrophilically-coated balloon membrane: A membrane, which contains an additionally applied layer, which can itself be wetted with water; • Open on the surface: Pharmaceuticals or additives which are not incorporated into the balloon membrane or which are not incorporated into any layers that are firmly attached to the balloon membrane. For example, they are not incorporated in any polymeric water-insoluble coatings particularly any hydrogels that may not become detached. […] The balloons are expanded when dry and shaken for 5 seconds in a glass vessel. More than 75% of the dose remains on the balloon; • Highly volatile: Solvents with a boiling point below 300° C., and preferably below 160° C., with below 100° C. being particularly preferred.
Each balloon was coated in the folded state with 3 to 4 μg/mm^2 paclitaxel and was tested for loss of the active substance during expansion in the dry state as defined under ‘Definitions’.

[4] = Coating of hydrophilic and non-hydrophilic balloon catheters with paclitaxel by immersion: paclitaxel content on balloon; assay type: physicochemical; conditions: 4 immersions, 30 mg paclitaxel/ml
Description: Coating solution: 30 mg paclitaxel/ml in acetone 89%, ethanol 9%, Ultravist®-370 (Schering AG, Berlin) 2%, by immersing it 4 times and allowing it to dry between each immersion: […]

CN(Cc1cnc2nc(N)nc(N)c2n1)c1ccc(C(=O)N[C@@H](CCC(=O)O)C(=O)O)cc1 [Methotrexate, methotrexate]
Minimum vessel diameter 28d ([1]; 28 d): 1.74 ± 0.41 mm
Late lumen loss [1]: 0.67 ± 0.39 mm
Late lumen loss ([1]; listed as methotrexate): 0.67 mm
Content of active substance [2]: 5.3 μg/mm^2 balloon surface

CC(=O)O[C@H]1C(=O)[C@@]2(C)[C@H]([C@H](OC(=O)c3ccccc3)[C@]3(O)C[C@H](OC(=O)[C@H](O)[C@@H](NC(=O)c4ccccc4)c4ccccc4)C(C)=C1C3(C)C)[C@]1(OC(C)=O)CO[C@@H]1C[C@@H]2O [paclitaxel]
loss of the active substance during expansion in the dry state ([3]; series 1, coating solvent Acetic acid): 4%
loss of the active substance during expansion in the dry state ([3]; series 1, coating solvent Acetone, 3 to 4 μg/mm^2, folded): 21%
loss of the active substance during expansion in the dry state ([3]; series 1, coating solvent Dimethylformamide): 24%
loss of the active substance during expansion in the dry state ([3]; series 1, coating solvent Dimethylsulfoxide): 66%
loss of the active substance during expansion in the dry state ([3]; series 1, coating solvent Dioxane): 12%
loss of the active substance during expansion in the dry state ([3]; series 1, coating solvent Isopropanol): 19%
loss of the active substance during expansion in the dry state ([3]; series 1, coating solvent Tetrahydrofuran): 4%
loss of the active substance during expansion in the dry state ([3]; series 2, Tetrahydrofuran with 10% water by volume): 3%
loss of the active substance during expansion in the dry state ([3]; series 2, Tetrahydrofuran with 20% water by volume): 16%
loss of the active substance during expansion in the dry state ([3]; series 2, Tetrahydrofuran with 37% water by volume): 37%
loss of the active substance during expansion in the dry state ([3]; series 2, coating solvent Tetrahydrofuran): 3%
μg paclitaxel/mm^2 balloon surface ([4]; hydrophilic catheter, 3.5 to 15 mm, 5 balloon catheters): 2.8 μg/mm^2
μg paclitaxel/mm^2 balloon surface ([4]; hydrophilic catheter, 3.5 to 20 mm, 8 balloon catheters): 5.6 μg/mm^2
μg paclitaxel/mm^2 balloon surface ([4]; standard catheter, 3.5 to 15 mm, 5 balloon catheters): 3.4 μg/mm^2
μg paclitaxel/mm^2 balloon surface ([4]; standard catheter, 3.5 to 20 mm, 8 balloon catheters): 5.0 μg/mm^2
